Test results: article PMC5766975, “Production of eicosapentaenoic acid by application of a delta-6 desaturase with the highest ALA catalytic activity in algae” (Microbial Cell Factories, 2018)
Like-named read-outs stand apart in the source and are kept apart here.

Key:
TpFADS6 [1] = biological target: T1, TpFADS6 (Thalassiosira pseudonana, UniProt Q4G2T1); design: gene desI; conditions: single substrate fed to Saccharomyces cerevisiae INVSc1 expressing the desaturase; delta-6 desaturation; free acid fed
T1 sequence (Q4G2T1 entry or part of it): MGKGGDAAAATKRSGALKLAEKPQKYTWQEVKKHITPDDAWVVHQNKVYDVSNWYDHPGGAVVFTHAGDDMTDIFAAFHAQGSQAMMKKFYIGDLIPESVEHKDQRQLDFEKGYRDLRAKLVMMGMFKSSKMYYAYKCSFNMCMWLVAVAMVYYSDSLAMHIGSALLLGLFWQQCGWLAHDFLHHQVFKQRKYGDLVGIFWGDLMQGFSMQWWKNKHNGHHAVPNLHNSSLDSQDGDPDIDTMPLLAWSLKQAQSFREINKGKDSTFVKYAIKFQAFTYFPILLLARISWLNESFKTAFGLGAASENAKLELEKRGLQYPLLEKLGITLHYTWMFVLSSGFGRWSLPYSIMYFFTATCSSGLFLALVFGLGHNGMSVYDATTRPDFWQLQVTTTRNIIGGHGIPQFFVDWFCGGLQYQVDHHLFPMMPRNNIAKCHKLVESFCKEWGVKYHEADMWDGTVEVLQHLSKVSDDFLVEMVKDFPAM

TpFADS6 [2] = biological target: T1, TpFADS6; experiment: fatty acid composition of substrate-fed yeast transformants by GC (conversion to GLA); format: cell-based; design: gene desI; full-length, synthetic codon-optimised gene, 1455-bp fragment; expressed from pYES2/NT C (vector-encoded tag) in Saccharomyces cerevisiae INVSc1; conditions: single substrate fed to Saccharomyces cerevisiae INVSc1 expressing the desaturase; delta-6 desaturation; free acid fed

## CC/C=C\C/C=C\C/C=C\CCCCCCCC(=O)O [ALA, α-linolenic acid]
TpFADS6 [1]
  fatty acid composition of substrate-fed yeast transformants by GC (conversion to): both substrates were catalyzed by TpFADS6

## CCCCC/C=C\C/C=C\CCCCCCCC(=O)O [LA, linoleic acid]
TpFADS6 [2]
  fatty acid composition of substrate-fed yeast transformants by GC (conversion to): both substrates were catalyzed by TpFADS6
